The subject of data set [1] is HCT116 cells. Description: In vitro cell cycle arrest functional assay (propidium iodide, flow cytometry). Format: cell-based. Conditions: Homo sapiens, HCT-116, 24 h incubation, read-out: IC50 of dose responsive accumulation in G2/M. The procedure:
Cell Incubation with MMAE and Compound 2 and Staining with Propidium Iodide
HCT116 cells were seeded in 6-well tissue culture plates at 500,000 cells per well in 2 mL of DMEM and incubated overnight in a 37° C., 5% CO2 incubator. 200 μL of dilutions of MMAE and Compound 2 which were made at 10× concentrations in DMEM+4% DMSO were added to appropriate wells of the 6-well plates and plates were incubated for 24 hours. After exposure of HCT116 cells to either MMAE or Compound 2, cells were harvested for propidium iodide staining and flow cytometry. Media was collected from each well and transferred into conical 15 mL centrifuge tubes to collect nonadherent cells. PBS (1 mL) was added to wash wells and was then transferred to the 15 mL tubes. Tryp-LE (1 mL) was added to each well and plates were incubated for 5 minutes in a 37° C., 5% CO2 incubator until the cells lifted off the well surface. A solution of DMEM+10% fetal bovine serum (1 mL) was added to each well. Wells were triturated and cells transferred to tubes. […] Cell counts and viability for each sample was assessed by trypan blue exclusion on a Bio-Rad TC20 cell counter. […]
An aliquot (1 mL) of each cell suspension was transferred into a deep-well polypropylene plate. […] Propidium iodide-stained cells were analyzed using a BD Acuri flow cytometer.

A short description of data set [2]: Tissue pharmacokinetics of Compound 2 in a mouse model (MMAE in tumor, muscle, bone marrow). Format: in vivo, athymic nude mice bearing HCT116 tumors. Conditions: single IP 0.5 mg/kg MMAE or 3 mg/kg Compound 2; 4, 24, 48 h; LCMS. The procedure: When xenografts reached a minimal volume of 300 mm^3, mice were administered a single intraperitoneal injection of 0.5 mg/kg MMAE or 3 mg/kg Compound 2 prepared in a vehicle of 5% mannitol in citrate. Tumor, quadriceps muscle and bone marrow samples were collected from fed, anesthetized mice at 4, 24 and 48 hours after compound administration. MMAE concentrations in tissues were determined via LCMS.
A 75 μL volume of acetonitrile:formic acid (1000:1, v:v) containing internal standard (MMAE-D8) to the wells of a 96-well protein precipitation plate resting on top of a 0.700 mL 96-well LoBind polypropylene plate. Double blank and carryover sample wells received 75 μL of acetonitrile:formic acid (1000:1, v:v) without internal standard. A 25 μL volume of each matrix sample was added to the plate wells containing internal standard. Fortified samples were vortexed at 700 rpm for 1 minute and centrifuged at 3000 rpm for 2 minutes at 4° C. The protein precipitation plate was discarded. A 50 μL volume of mobile phase A (acetonitrile:water:200 mM ammonium formate (90:5:5, v:v:v)) was added to the 96-well polypropylene collection plate which was covered with a silicone cap mat. Final samples were vortexed at 700 rpm for 2 minutes and analysis was accomplished by injecting a 2 μL sample onto an LC-MS/MS system. […]

Data set [3] concerns HCT116 HER2 negative colorectal flank tumors. Description: Efficacy in a HCT116 colorectal xenograft model (Example E). Format: in vivo, nude mice. The note with it: IP QDx2. As to the method: Mice were administered intraperitoneal (IP) doses of vehicle, 0.25 mg/kg MMAE or 40 mg/kg Compound 1 (equivalent 7 mg/kg unconjugated MMAE).
Data set [4] has as its system HCT116 colorectal cancer flank tumors. Description: Efficacy of Compound 5 in a HCT116 colorectal xenograft model (Example N). In kind it is in vivo, nude mice. Conditions: 1, 5 and 10 mg/kg IP QDx4. As to the method: Mice were administered intraperitoneal (IP) doses of vehicle, 1, 5, or 10 mg/kg Compound 5.

Where a SMILES comes first, the peptide text is derived from it. [ ]: non-standard residue; d: D form. The star is where a group is joined. Dolaproine = CO[C@@H]([C@@H]1CCCN1)[C@@H](C)C(=O)O; Dil = CC[C@H](C)[C@H](NC)[C@@H](CC(=O)O)OC; X1 = C[C@@H](N*)[C@@H](O)c1ccccc1; NMeV = CN[C@H](C(=O)O)C(C)C

In the case of `CC[C@H](C)[C@@H]([C@@H](CC(=O)N1CCC[C@H]1[C@H](OC)[C@@H](C)C(=O)N[C@H](C)[C@@H](O)c1ccccc1)OC)N(C)C(=O)[C@@H](NC(=O)[C@@H](NC)C(C)C)C(C)C` [MMAE, monomethyl auristatin E] (H-[NMeV]V[Dil][Dolaproine]-X1), in data set [1], the IC50 was 2.6 nM. Further, in data set [2], the “distribution of unconjugated MMAE to tumor, muscle and bone marrow” value was “indiscriminate distribution of MMAE across all tissues”. Moreover, the “animals removed from the study by day” value in data set [3] (0.25 mg/kg MMAE) was ≤ 6 days. The “change in body weight” value in data set [3] (0.25 mg/kg MMAE or 40 mg/kg Compound 1 (7 mg/kg MMAE equivalent)) is “rapid decline in body weight”.

`CC[C@H](C)[C@@H]([C@@H](CC(=O)N1CCC[C@H]1[C@H](OC)[C@@H](C)C(=O)N[C@H](C)[C@@H](O)c1ccccc1)OC)N(C)C(=O)[C@@H](NC(=O)[C@H](C(C)C)N(C)C(=O)OCc1ccc(NC(=O)O[C@H]2CCCC[C@@H]2SSC[C@H](NC(=O)[C@H](Cc2c[nH]c3ccccc23)NC(=O)[C@H](CC(C)C)NC(=O)[C@H](CC(C)C)NC(=O)[C@H](CC(=O)O)NC(=O)[C@H](CC(C)C)NC(=O)[C@H](CC(C)C)NC(=O)[C@H](CC(C)C)NC(=O)[C@@H](NC(=O)[C@H](CC(=O)O)NC(=O)[C@@H](NC(=O)[C@@H]2CCCN2C(=O)[C@H](Cc2ccccc2)NC(=O)[C@H](CC(C)C)NC(=O)[C@H](CC(C)C)NC(=O)[C@H](CC(=O)O)NC(=O)[C@H](CC(C)C)NC(=O)[C@H](Cc2ccc(O)cc2)NC(=O)[C@H](C)NC(=O)[C@H](CCCNC(=N)N)NC(=O)[C@H](Cc2c[nH]c3ccccc23)NC(=O)[C@@H]2CCCN2C(=O)[C@H](CC(N)=O)NC(=O)[C@H](CCC(N)=O)NC(=O)[C@H](CC(=O)O)NC(=O)[C@H](CC(=O)O)NC(=O)[C@H](C)N)[C@@H](C)O)[C@@H](C)O)C(=O)NCC(N)=O)cc1)C(C)C` [Compound 5]: in data set [4], the “efficacy (mean tumor volume)” value is given as “dose responsive efficacy”.
